Test results published in US12280047B2, “Treatment of aneurysms” (Georgia State Research Foundation, Inc., priority 2017, dated 2025).

How the values were obtained:
Type in all cases: in vivo
[1] = tested on: ApoE−/− and ApoE−/−/IDO−/− mice; test: AngII-induced AAA after reciprocal bone marrow transplants; conditions: AngII 1000 ng/min per kg, 4 weeks
Experimental: Bone marrow transplantation was performed as described previously (Lukasova M, et al., Nicotinic acid inhibits progression of atherosclerosis in mice through its receptor GPR109A expressed by immune cells. J Clin Invest. (2011) 121:1163-73; Duran-Struuck R and Dysko R C. Principles of bone marrow transplantation (BMT): providing optimal veterinary and husbandry care to irradiated mice in BMT studies. J Am Assoc Lab Anim Sci. (2009) 48:11-22). Bone marrow was obtained aseptically from femora and tibiae of ApoE^−/− or ApoE^−/−/IDO^−/− mice. Cells (5×10^6/mouse) were resuspended in sterile PBS and transplanted by intravenous infusion into lethally irradiated (10 Gy) ApoE^−/− or ApoE^−/−/IDO^−/− mice recipients 6 hours after irradiation at the age of 8 weeks.
To quantify AAA incidence and size, the maximum width of abdominal aorta was measure with Image Pro Plus software (Media Cybernetics). We quantified aneurysm incidence based on a definition of aneurysm as an external width of the suprarenal aorta that was increased by 50% or greater compared with aortas from saline-infused mice, as described previously (Sparks A R, et al., Imaging of abdominal aortic aneurysms. Am Fam Physician. (2002) 65:1565-70). The average diameter of the normal suprarenal aorta in control mice is 0.8 mm. We therefore set a threshold of 1.22 mm as evidence of aneurysm formation. […]

ApoE−/− mice [2] = test: Acipimox preventing AngII-induced abdominal aortic aneurysm (Example 12)
Experimental: To evaluate whether acipimox has inhibitory effects on AngII-induced AAA formation, male ApoE^−/− mice at age eight weeks were administrated either 1) acipimox (0.1% wt) or 2) vehicle control (water) by drinking water. After four weeks, Alzet osmotic mini pumps (Model 2004) were implanted into each group. Pumps were filled either with 1) saline vehicle or 2) solutions of Ang II (Sigma Chemical Co., St. Louis, Missouri, USA) that delivered (subcutaneously) 1.44 mg/kg/day of Ang II for 28 days. Pumps were placed into the subcutaneous space of isoflurane anesthetized mice through a small incision in the back of the neck that was closed with surgical glue. All incision sites healed rapidly without the need for any medication.
To quantify AAA incidence and size, the maximum width of abdominal aorta was measured with Image Pro Plus software (Media Cybernetics). Aneurysm incidence was quantified based on a definition of aneurysm as an external width of the suprarenal aorta that was increased by 50% or greater compared with aortas from saline-infused mice. The average diameter of the normal suprarenal aorta in control mice is 0.8 mm. […]
Abdominal aorta dimeter was measured by ultrasound as described above.
The effect of acipimox on the speed of propagation (i.e. PWV), which is parameter for arterial stiffness, was analyzed.

ApoE−/− mice [3] = test: OMBA, NBA and 1MT treating AngII-induced abdominal aortic aneurysm (Example 15); conditions: ApoE−/− mice; AngII 1,000 ng/kg/min four weeks, then drug in drinking water 6 weeks; mice with AAA/group size
Experimental: To test the effect of other Kynurenine pathway inhibitors on treating AngII-induced abdominal aortic aneurysm, male ApoE^−/− mice at age 8 weeks were infused with AngII (1,000 ng/kg/min) or saline (0.9% sodium chloride) by Alzet osmotic pumps for four weeks. Four weeks later, Ang-II treated mice were divided into […] groups of 18 and administered o-methoxybenzo ylalanine (OMB), (m-nitrobenzoyl)alanine (NBA), 1-methyltryptophan (1MT) or vehicle control (water) by drinking water for 6 weeks.
To quantify AAA incidence and size, the maximum width of abdominal aorta was measured with Image Pro Plus software (Media Cybernetics). Aneurysm incidence was quantified based on a definition of aneurysm as an external width of the suprarenal aorta that was increased by 50% or greater compared with aortas from saline-infused mice. The average diameter of the normal suprarenal aorta in control mice is 0.8 mm. Therefore, a threshold of 1.22 mm as evidence of aneurysm formation was set. […] Incidence of AAA among the various groups of mice is outlined in FIG. 31A and Table 5 below.

For “Angiotensin II (DRVYIHPF; Angiotensin-2; UniProt P01019 25-32, looked up) [AngII, Angiotensin II (Sigma, A9525) infused to induce AAA in mice]”, the AAA incidence ([1]; ApoE−/− mice transplanted with IDO−/− or IDO+/+ bone marrow cells) was “approximately 70%”, the AAA incidence ([1]; ApoE−/−/IDO−/− mice transplanted with IDO−/− or IDO+/+ bone marrow cells) was 20% and the mortality rate (ApoE−/− mice [2]; Ang II 1.44 mg/kg/day 28 days, with acipimox 0.1% wt or vehicle) was 28.6%. The “mice that developed AAA (AAA incidence)” value (ApoE−/− mice [2]; Ang II 1.44 mg/kg/day s.c. 28 days, acipimox 0.1% wt or vehicle in drinking water, started four weeks before) was “Eighty” and the “Incidence of AAA” value (ApoE−/− mice [3]) was 15/18.
